In patent US12054483B2, “Small molecule inhibitors of DYRK/CLK and uses thereof” (Arizona Board of Regents on Behalf of the University of …, priority 2018, dated 2024):

molecular target: DYRK1A (Homo sapiens, UniProt Q13627); test: Affinity testing of compounds with DYRK1A (KD); type: binding; details: DYRK1A affinity key classes

Row | SMILES | Kd
1 | c1cc(-c2ccc3ncc(-c4ccc(N5CCCCC5)nc4)n3n2)ccn1 [Compound 74, 3-(6-(piperidin-1-yl)pyridin-3-yl)-6-(pyridin-4-yl)imidazo[1,2-b]pyridazine] | 101 to 500 nM
2 | COC(=O)c1ccc(-c2cnc3ccc(-c4ccncc4)nn23)cc1 [Compound 72, methyl 4-(6-(pyridin-4-yl)imidazo[1,2-b]pyridazin-3-yl)benzoate] | 0.5 to 100 nM
3 | CN1CCN(Cc2ccc(-c3cnc4ccc(-c5ccncc5)nn34)cc2)CC1 [Compound 100, 3-(4-((4-methylpiperazin-1-yl)methyl)phenyl)-6-(pyridin-4-yl)imidazo[1,2-b]pyridazine] | 101 to 500 nM
4 | Cc1nc2ccc(-c3ccncc3)nc2n1-c1ccc(C(=O)N2CCOCC2)cc1 [Compound 56, (4-(2-methyl-5-(pyridin-4-yl)-3H-imidazo[4,5-b]pyridin-3-yl)phenyl)(morpholino)methanone] | 101 to 500 nM
5 | O=C(O)c1ccc(-n2cnc3ccc(-c4ccncc4)c(F)c32)cc1 [Compound 6, 4-(7-fluoro-6-(pyridin-4-yl)-1H-benzo[d]imidazol-1-yl)benzoic acid] | 101 to 500 nM
6 | c1cc(-c2ccc3ncc(-c4ccc5c(c4)OCO5)n3n2)ccn1 [Compound 23, 3-(benzo[d][1,3]dioxol-5-yl)-6-(pyridin-4-yl)imidazo[1,2-b]pyridazine] | 0.5 to 100 nM
7 | O=C(O)c1ccc(-n2cnc3ccc(-c4ccncc4)nc32)cc1 [Compound 10, 4-(5-(pyridin-4-yl)-3H-imidazo[4,5-b]pyridin-3-yl)benzoic acid] | 0.5 to 100 nM
8 | c1cc(-c2ccc3nnn(-c4ccc5[nH]cnc5c4)c3n2)ccn1 [Compound 59, 3-(1H-benzo[d]imidazol-5-yl)-5-(pyridin-4-yl)-3H-[1,2,3]triazolo[4,5-b]pyridine] | 0.5 to 100 nM
9 | COc1ccc(-n2c(C)nc3ccc(-c4ccncc4)nc32)cc1 [Compound 43, 3-(4-methoxyphenyl)-2-methyl-5-(pyridin-4-yl)-3H-imidazo[4,5-b]pyridine] | 0.5 to 100 nM
10 | c1cc(-c2cn3cnnc3cn2)ccn1 [Compound 68, 6-(pyridin-4-yl)-[1,2,4]triazolo[4,3-a]pyrazine] | 501 to 10000 nM
11 | Fc1c(-c2ccncc2)ccc2ncn(-c3ccc4c(c3)OCO4)c12 [Compound 1, 1-(benzo[d][1,3]dioxol-5-yl)-7-fluoro-6-(pyridin-4-yl)-1H-benzo[d]imidazole] | 0.5 to 100 nM
12 | c1cc(-c2ccc3ncc(-c4ccc(CN5CCCC5)cc4)n3n2)ccn1 [Compound 103, 6-(pyridin-4-yl)-3-(4-(pyrrolidin-1-ylmethyl)phenyl)imidazo[1,2-b]pyridazine] | 101 to 500 nM
13 | Cc1cc(-c2ccc3nc(C)n(-c4ccc5[nH]cnc5c4)c3n2)cc(C)n1 [Compound 51, 3-(1H-benzo[d]imidazol-5-yl)-5-(2,6-dimethylpyridin-4-yl)-2-methyl-3H-imidazo[4,5-b]pyridine] | 101 to 500 nM
14 | Cc1nc2ccc(-c3cc[nH]c(=O)c3)nc2n1-c1ccc(CN2CCOCC2)cc1 [Compound 45, 4-(2-methyl-3-(4-(morpholinomethyl)phenyl)-3H-imidazo[4,5-b]pyridin-5-yl)pyridin-2(1H)-one] | 501 to 10000 nM
15 | Cc1nc2ccc(-c3ccncc3)nc2n1-c1ccc(CN2CCCC(F)(F)C2)cc1 [Compound 65, 3-(4-((3,3-difluoropiperidin-1-yl)methyl)phenyl)-2-methyl-5-(pyridin-4-yl)-3H-imidazo[4,5-b]pyridine] | 101 to 500 nM
16 | Cc1nc2ccc(-c3ccncc3)nc2n1-c1ccc2[nH]cnc2c1 [Compound 32, 3-(1H-benzo[d]imidazol-5-yl)-2-methyl-5-(pyridin-4-yl)-3H-imidazo[4,5-b]pyridine] | 0.5 to 100 nM
17 | CN1CCN(c2ccc(-c3cnc4ccc(-c5ccncc5)nn34)cn2)CC1 [Compound 87, 3-(6-(4-methylpiperazin-1-yl)pyridin-3-yl)-6-(pyridin-4-yl)imidazo[1,2-b]pyridazine] | 0.5 to 100 nM
18 | O=C(O)c1ccc(-n2cnc3cc(F)c(-c4ccncc4)cc32)cc1 [Compound 8, 4-(5-fluoro-6-(pyridin-4-yl)-1H-benzo[d]imidazol-1-yl)benzoic acid] | 101 to 500 nM

Next, values leading:

Row | Kd | SMILES
19 | 0.5 to 100 nM | Cc1nc2ccc(-c3ccncc3)nc2n1-c1cccc(CN2CCOCC2)c1 [Compound 140, 4-(3-(2-methyl-5-(pyridin-4-yl)-3H-imidazo[4,5-b]pyridin-3-yl)benzyl)morpholine]
20 | 0.5 to 100 nM | Cc1nc2ccc(-c3ccnc(N)c3)nc2n1-c1cnc2[nH]ccc2c1 [Compound 152, 4-(2-methyl-3-(1H-pyrrolo[2,3-b]pyridin-5-yl)-3H-imidazo[4,5-b]pyridin-5-yl)pyridin-2-amine]
21 | 101 to 500 nM | Cc1nc2ncc(-c3ccncc3)nc2n1-c1ccc2[nH]cnc2c1 [Compound 131, 1-(1H-benzo[d]imidazol-5-yl)-2-methyl-6-(pyridin-4-yl)-1H-imidazo[4,5-b]pyrazine]
22 | 0.5 to 100 nM | Cc1nc2ccc(-c3ccncc3)nc2n1-c1ccc(N2CCN(C)CC2)cc1 [Compound 132, 2-methyl-3-(4-(4-methylpiperazin-1-yl)phenyl)-5-(pyridin-4-yl)-3H-imidazo[4,5-b]pyridine]
23 | 0.5 to 100 nM | Cc1nc2ccc(-c3ccncc3)nc2n1-c1ccc(CN2CCC3(COC3)C2)cc1 [Compound 121, 6-(4-(2-methyl-5-(pyridin-4-yl)-3H-imidazo[4,5-b]pyridin-3-yl)benzyl)-2-oxa-6-azaspiro[3.4]octane]
24 | 0.5 to 100 nM | Cc1nc2ccc(-c3ccnc(N)c3)nc2n1-c1ccc(N2C[C@@H](C)O[C@@H](C)C2)nc1 [Compound 161, 4-(3-(6-((2S,6R)-2,6-dimethylmorpholino)pyridin-3-yl)-2-methyl-3H-imidazo[4,5-b]pyridin-5-yl)pyridin-2-amine]
25 | 0.5 to 100 nM | Cc1nc2ccc(-c3ccnc(N)c3)nc2n1-c1ccc(N2CCS(=O)(=O)CC2)c(F)c1 [Compound 182, 4-(4-(5-(2-aminopyridin-4-yl)-2-methyl-3H-imidazo[4,5-b]pyridin-3-yl)-2-fluorophenyl)thiomorpholine 1,1-dioxide]
26 | 0.5 to 100 nM | Cc1nc2ccc(-c3ccncc3)nc2n1-c1ccc(CO)cc1 [Compound 115, (4-(2-methyl-5-(pyridin-4-yl)-3H-imidazo[4,5-b]pyridin-3-yl)phenyl)methanol]
27 | 0.5 to 100 nM | Cc1cc(-n2c(C)nc3ccc(-c4ccnc(N)c4)nc32)cnc1N1CCOCC1 [Compound 162, 4-(2-methyl-3-(5-methyl-6-morpholinopyridin-3-yl)-3H-imidazo[4,5-b]pyridin-5-yl)pyridin-2-amine]
28 | 0.5 to 100 nM | Cc1nc2ccc(-c3ccnc(N)c3)nc2n1-c1ccc(N2CCOCC2)c(Cl)c1 [Compound 168, 4-(3-(3-chloro-4-morpholinophenyl)-2-methyl-3H-imidazo[4,5-b]pyridin-5-yl)pyridin-2-amine]
29 | 0.5 to 100 nM | Cc1nc2ccc(-c3ccnc(N)c3)nc2n1-c1ccc(N2C[C@H]3C[C@H]2CO3)nc1 [Compound 160, 4-(3-(6-((1R,4S)-2-oxa-5-azabicyclo[2.2.1]heptan-5-yl)pyridin-3-yl)-2-methyl-3H-imidazo[4,5-b]pyridin-5-yl)pyridin-2-amine]
30 | 0.5 to 100 nM | Cc1nc2ccc(-c3ccnc(N)c3)c(F)c2n1-c1ccc(N2CCOCC2)cc1 [Compound 127, 4-(7-fluoro-2-methyl-1-(4-morpholinophenyl)-1H-benzo[d]imidazol-6-yl)pyridin-2-amine]
